Test results reported in ChEMBL document CHEMBL1201862, “PubChem BioAssay data set” (2004).
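Grown in 96-well plates, cells were treated for 48 hours with each compound at five concentrations. Insufficient inhibition: endpoint recorded as highest concentration tested. Here, GI50 denotes the concentration required for 50% inhibition of growth.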 Activity calls are given as the source filed them. Cut-off read from the data, not from the text of the source: active = GI50 up to about 1.1 µM and inactive = higher.

Columns and labels:
Assay in all cases: NCI anticancer screen, dose series, 48 h
[1] = system: 786-0
[2] = system: A498
[3] = system: A549
[4] = system: ACHN
[5] = system: BT-549
[6] = system: CAKI-1
[7] = system: CCRF-CEM
[8] = system: COLO 205
[9] = system: EKVX
[10] = system: HCC 2998
[11] = system: HCT-116
[12] = system: HCT-15
[13] = system: HL-60
[14] = system: HOP-62
[15] = system: HOP-92
[16] = system: HT-29
[17] = system: Hs-578T
[18] = system: IGROV-1
[19] = system: K562
[20] = system: KM12
[21] = system: LOX IMVI
[22] = system: M14
[23] = system: MCF7
[24] = system: MDA-MB-231
[25] = system: MDA-MB-435
[26] = system: MDA-N
[27] = system: MOLT-4
[28] = system: Malme-3M
[29] = system: NCI-H226
[30] = system: NCI-H23
[31] = system: NCI-H460
[32] = system: NCI-H522
[33] = system: NCI/ADR-RES
[34] = system: OVCAR-3
[35] = system: OVCAR-4
[36] = system: OVCAR-5
[37] = system: OVCAR-8
[38] = system: PC-3
[39] = system: RPMI-8226
[40] = system: RXF 393
[41] = system: SF-268
[42] = system: SF-295
[43] = system: SF-539
[44] = system: SK-MEL-28
[45] = system: SK-MEL-2
[46] = system: SK-MEL-5
[47] = system: SK-OV-3
[48] = system: SN12C
[49] = system: SNB-19
[50] = system: SNB-75
[51] = system: SW-620
[52] = system: T47D
[53] = system: TK-10
[54] = system: U-251
[55] = system: UACC-257
[56] = system: UACC-62
[57] = system: UO-31
[58] = system: DU-145
[59] = system: SR

CCCCCCCCP(=O)(O)OP(=O)(O)OCC1OC(n2ccc(N)nc2=O)C(O)C1O (centres undefined)
GI50 [1]: > 100 µM (inactive)
GI50 [2]: > 100 µM (inactive)
GI50 [3]: > 100 µM (inactive)
GI50 [4]: > 100 µM (inactive)
GI50 [5]: > 100 µM (inactive)
GI50 [6]: > 100 µM (inactive)
GI50 [7]: > 100 µM (inactive)
GI50 [8]: > 100 µM (inactive)
GI50 [9]: > 100 µM (inactive)
GI50 [10]: > 100 µM (inactive)
GI50 [11]: > 100 µM (inactive)
GI50 [12]: > 100 µM
GI50 [13]: > 100 µM (inactive)
GI50 [14]: > 100 µM (inactive)
GI50 [15]: > 100 µM (inactive)
GI50 [16]: > 100 µM (inactive)
GI50 [17]: > 100 µM (inactive)
GI50 [18]: > 100 µM (inactive)
GI50 [19]: > 100 µM (inactive)
GI50 [20]: > 100 µM (inactive)
GI50 [21]: > 100 µM (inactive)
GI50 [22]: > 100 µM (inactive)
GI50 [23]: > 100 µM (inactive)
GI50 [24]: > 100 µM (inactive)
GI50 [25]: > 100 µM (inactive)
GI50 [26]: > 100 µM (inactive)
GI50 [27]: > 100 µM (inactive)
GI50 [28]: > 100 µM (inactive)
GI50 [29]: > 100 µM (inactive)
GI50 [30]: > 100 µM (inactive)
GI50 [31]: > 100 µM (inactive)
GI50 [32]: > 100 µM (inactive)
GI50 [33]: > 100 µM (inactive)
GI50 [34]: > 100 µM (inactive)
GI50 [35]: > 100 µM (inactive)
GI50 [36]: > 100 µM (inactive)
GI50 [37]: > 100 µM (inactive)
GI50 [38]: > 100 µM (inactive)
GI50 [39]: > 100 µM (inactive)
GI50 [40]: > 100 µM (inactive)
GI50 [41]: > 100 µM (inactive)
GI50 [42]: > 100 µM (inactive)
GI50 [43]: > 100 µM (inactive)
GI50 [44]: > 100 µM (inactive)
GI50 [45]: > 100 µM (inactive)
GI50 [46]: > 100 µM (inactive)
GI50 [47]: > 100 µM (inactive)
GI50 [48]: > 100 µM (inactive)
GI50 [49]: > 100 µM (inactive)
GI50 [50]: > 100 µM (inactive)
GI50 [51]: > 100 µM (inactive)
GI50 [52]: > 100 µM (inactive)
GI50 [53]: > 100 µM (inactive)
GI50 [54]: > 100 µM (inactive)
GI50 [55]: > 100 µM (inactive)
GI50 [56]: > 100 µM (inactive)
GI50 [57]: > 100 µM (inactive)

CCOc1ccccc1Nc1ccc(N)cc1S(=O)(=O)O
GI50 [1]: > 100 µM (inactive)
GI50 [2]: > 100 µM (inactive)
GI50 [3]: > 100 µM (inactive)
GI50 [4]: > 100 µM (inactive)
GI50 [5]: > 100 µM (inactive)
GI50 [6]: > 100 µM (inactive)
GI50 [58]: > 100 µM (inactive)
GI50 [9]: > 100 µM (inactive)
GI50 [10]: > 100 µM (inactive)
GI50 [11]: > 100 µM (inactive)
GI50 [12]: > 100 µM
GI50 [14]: > 100 µM (inactive)
GI50 [15]: > 100 µM (inactive)
GI50 [16]: > 100 µM (inactive)
GI50 [17]: > 100 µM (inactive)
GI50 [18]: > 100 µM (inactive)
GI50 [19]: > 100 µM (inactive)
GI50 [20]: > 100 µM (inactive)
GI50 [21]: > 100 µM (inactive)
GI50 [22]: > 100 µM (inactive)
GI50 [24]: > 100 µM (inactive)
GI50 [25]: > 100 µM (inactive)
GI50 [26]: > 100 µM (inactive)
GI50 [27]: > 100 µM (inactive)
GI50 [28]: > 100 µM (inactive)
GI50 [29]: > 100 µM (inactive)
GI50 [30]: > 100 µM (inactive)
GI50 [31]: > 100 µM (inactive)
GI50 [32]: > 100 µM (inactive)
GI50 [33]: > 100 µM (inactive)
GI50 [34]: > 100 µM (inactive)
GI50 [35]: > 100 µM (inactive)
GI50 [36]: > 100 µM (inactive)
GI50 [38]: > 100 µM (inactive)
GI50 [40]: > 100 µM (inactive)
GI50 [41]: > 100 µM (inactive)
GI50 [42]: > 100 µM (inactive)
GI50 [44]: > 100 µM (inactive)
GI50 [45]: > 100 µM (inactive)
GI50 [46]: > 100 µM (inactive)
GI50 [48]: > 100 µM (inactive)
GI50 [49]: > 100 µM (inactive)
GI50 [50]: > 100 µM (inactive)
GI50 [59]: > 100 µM (inactive)
GI50 [51]: > 100 µM (inactive)
GI50 [52]: > 100 µM (inactive)
GI50 [53]: > 100 µM (inactive)
GI50 [54]: > 100 µM (inactive)
GI50 [55]: > 100 µM (inactive)
GI50 [56]: > 100 µM (inactive)
GI50 [57]: > 100 µM (inactive)

O=c1[nH]c(=O)c2c([nH]1)[nH]c1ccc(Br)cc12
GI50 [1]: 66.2 µM (inactive)
GI50 [2]: > 100 µM (inactive)
GI50 [3]: > 100 µM (inactive)
GI50 [4]: 70 µM (inactive)
GI50 [5]: > 100 µM (inactive)
GI50 [6]: > 100 µM (inactive)
GI50 [7]: 82.2 µM (inactive)
GI50 [8]: > 100 µM (inactive)
GI50 [58]: > 100 µM (inactive)
GI50 [9]: > 100 µM (inactive)
GI50 [10]: 28 µM (inactive)
GI50 [11]: > 100 µM (inactive)
GI50 [12]: 66.1 µM
GI50 [13]: 70.6 µM (inactive)
GI50 [14]: > 100 µM (inactive)
GI50 [15]: 62.5 µM (inactive)
GI50 [16]: > 100 µM (inactive)
GI50 [17]: 45.3 µM (inactive)
GI50 [18]: 77.6 µM (inactive)
GI50 [20]: 21.8 µM (inactive)
GI50 [21]: > 100 µM (inactive)
GI50 [22]: > 100 µM (inactive)
GI50 [23]: 69 µM (inactive)
GI50 [24]: 93.5 µM (inactive)
GI50 [25]: > 100 µM (inactive)
GI50 [26]: > 100 µM (inactive)
GI50 [28]: > 100 µM (inactive)
GI50 [29]: > 100 µM (inactive)
GI50 [30]: > 100 µM (inactive)
GI50 [32]: > 100 µM (inactive)
GI50 [33]: > 100 µM (inactive)
GI50 [36]: > 100 µM (inactive)
GI50 [37]: > 100 µM (inactive)
GI50 [39]: 79.6 µM (inactive)
GI50 [40]: > 100 µM (inactive)
GI50 [41]: 97.1 µM (inactive)
GI50 [42]: > 100 µM (inactive)
GI50 [43]: > 100 µM (inactive)
GI50 [45]: > 100 µM (inactive)
GI50 [46]: 95.1 µM (inactive)
GI50 [47]: 13.6 µM (inactive)
GI50 [48]: > 100 µM (inactive)
GI50 [49]: > 100 µM (inactive)
GI50 [50]: 74.5 µM (inactive)
GI50 [59]: > 100 µM (inactive)
GI50 [51]: > 100 µM (inactive)
GI50 [52]: > 100 µM (inactive)
GI50 [53]: > 100 µM (inactive)
GI50 [55]: > 100 µM (inactive)
GI50 [56]: > 100 µM (inactive)
GI50 [57]: 56.9 µM (inactive)
